Reference: PMC5428058, “Local delivery of novel MRTF/SRF inhibitors prevents scar tissue formation in a preclinical model of fibrosis” (Scientific Reports, 2017)

Legend:
[1] = system: New Zealand white rabbits; assay: rabbit glaucoma filtration surgery model of scar tissue formation, clinical end-points; type: in vivo
Description: 24 female New Zealand white rabbits (2–2.4 kg, 12—14 weeks, Highgate, UK) underwent experimental glaucoma filtration surgery to the left eye under general anaesthesia, [28]. A superonasal fornix-based conjunctival flap was raised behind the limbus and a micro-vitreoretinal blade (20 gauge, 0.90 mm, Surgistar USA) was used to make a partial thickness scleral tunnel to the corneal stroma. A 22 gauge, 25 mm intravenous cannula was passed through the tunnel and the needle was removed once it was visible in the cornea. The cannula was advanced into the mid-pupillary area, trimmed at its scleral edge and fixed to the scleral surface using a 10–0 nylon suture (Alcon, USA). The conjunctival incision was closed using two interrupted 10–0 nylon sutures. In a randomised, prospective, single-masked observer study, the rabbits received either intraoperative 0.2 mg/ml mitomycin-C (MMC) [N = 6], or postoperative subconjunctival injections (100 μl) of 100 μM CCG-203971 [N = 6] or 100 μM CCG-222740 [N = 6] or vehicle control [N = 6] daily for the first nine days followed by twice weekly for three weeks, [33]. CCG-222740 and CCG-203971 were dissolved in 100% DMSO (Sigma, UK) at 10 mM and then diluted to 100 μM with sterile PBS. The same volume of DMSO was diluted with PBS for the vehicle control. For the MMC-treated group, a small corneal light shield sponge was soaked in 1 ml of 0.2 mg/ml MMC and applied over the conjunctiva for 3 minutes, and the area was then thoroughly washed with 50 ml of physiologic balanced salt solution (Alcon Laboratories, Inc., Fort Worth, TX). All the postoperative subconjunctival injections were given at the same site by a single-masked researcher.
(§1) The animals were evaluated twice weekly by a single-masked researcher. Bleb width and length were measured using calipers and intraocular pressures (IOP) were measured using a tonovet (Icare). The primary efficacy end-point was bleb survival as this is indicative of the long-term opening of the filtration pathway created during surgery. Bleb failure was defined as the appearance of a flat, scarred, and vascularised bleb associated with a deep anterior chamber. IOP survival, defined as when the intraocular pressure remains below the baseline IOP measurement, and bleb area were used as secondary end-points. Conjunctival vascularity was graded on a scale of 0 to 3 (0: avascular, 1: normal, 2: hyperaemic, 3: very hyperaemic).

[2] = system: New Zealand white rabbits; assay: local and systemic toxicity after glaucoma filtration surgery; type: in vivo; conditions: rabbit
Protocol: as §1
For the Ki67 staining, the sections were dewaxed, rehydrated, and microwaved for 15 minutes in sodium citrate buffer (pH 6) for antigen retrieval. After incubating in 1.6% hydrogen peroxide followed by 10% normal horse serum, the sections were incubated in mouse anti-Ki67 (M7248, Dako) diluted 1 in 25 in 1% BSA/PBS for 1 hour at room temperature. The sections were then incubated in biotinylated horse anti-mouse IgG (Vector) and Avidin-Biotin complex (Vector), developed in DAB (Vector), and counterstained in haematoxylin.
All animals were carefully evaluated for any signs of ocular or systemic toxicity during the study. At day 30, 100 µl of aqueous, 1 ml of vitreous, and 1 ml of venous blood were sampled on the rabbit eyes receiving CCG-222740 or CCG-203971 or vehicle control. The venous blood samples were left to clot for 30 minutes at room temperature, spun at 4000 rpm for 15 minutes at 4 °C, and the serum was collected as the supernatant. Samples were extracted in acetonitrile and the levels of CCG-222740 and CCG-203971 were measured in the aqueous, vitreous, and serum using liquid chromatography/mass spectrometry (LC/MS) in the Metabolomics Core at Michigan State University (East Lansing, MI).

CO[C@@]12[C@H](COC(N)=O)C3=C(C(=O)C(C)=C(N)C3=O)N1C[C@@H]1N[C@@H]12 [MMC, mitomycin-C, reference compound]
bleb area compared to vehicle control [1]: significantly larger | mean day of bleb failure ([1]; CCG compounds 100 μM subconjunctival, MMC 0.2 mg/ml intraoperative, vehicle 14 days): 28.8 days | intraocular pressure (IOP) ([1]; versus vehicle control or baseline): significantly lower | Ki67 positive cells in the conjunctival epithelium ([2]; day 30): markedly reduced the number of Ki67 positive cells | conjunctival vascularity ([2]; in vivo): thin avascular blebs | local toxicity, conjunctival epithelium ([2]; in vivo): caused disruption of the epithelial cell layer
